Measurements taken from US7399869B2, “Fibroblast activation protein inhibitor compounds and methods” (Genentech, Inc., priority 2005, dated 2008).
Residues, ends and D or L forms follow the SMILES beside them. *: point of attachment. CH2Cl = ClC*

Assays:
DPP-4 [1] = target: T1, DPP-4 (Homo sapiens, UniProt P27487); assay: Relative cleavage rates of coumarin (AMCC) dipeptide substrates by DPP-4; type: biochemical; parameters: DPP-4 (amino acids 39-766); FLAG (N); made in house; host or cells: 293 cells (secreted, purified from serum-free conditioned media); details: P2-Pro-AMCC substrates; hydrolysis rates normalized to Gly-Pro-AMCC
Experimental: (§1) The relative cleavage rates of a variety of N-blocked, C-terminal coumarin (AMCC) Gly-Pro dipeptide substrates 6 were measured. The rates were normalized to N-unblocked Gly-Pro-AMCC for FAP and DPP-4.
(§2) To examine whether FAP could cleave other N-substituted-Gly-Pro-based substrates, N-methyl-, formyl-, succinyl-, benzyloxycarbonyl-(Z-) and biotinyl-Gly-Pro-AMCC substrates 6 were synthesized and reacted with FAP (37 nM) and DPP-4 (6.8 nM).
(§3) Amino-terminus P2 was varied with the L-amino acids: alanine, aspartic acid, glutamic acid, phenylalanine, glycine, histidine, isoleucine, lysine, leucine, methionine, asparagine, proline, glutamine, arginine, serine, threonine, valine, tryptophan, and tyrosine (from left). AMCC=2-(7-amino-4-methyl-2-oxo-2H-chromen-3-yl)acetamide. For both enzymes, the amino acid adjacent in the model dipeptide substrate had little effect where the amino-terminus was unblocked. Hydrolysis rates of other P2-Pro-AMCC substrates by FAP and DPP-4 relative to Gly-Pro-AMCC include the following in Table 6:
(§4) Protease Assays—Protease activity was monitored continuously using a SpectraMax M2 microplate reader (Molecular Devices Corp., Sunnyvale Calif.) in the kinetic mode. Assays were conducted at 23° C. in 50 mM Tris (pH 7.4), 100 mM NaCl, 1 mM EDTA. The excitation/emission wavelengths for the different fluorogenic substrates were 360/460 nm (AMC), 400/505 nm (AFC), 340/425 nm (MNA), 340/510 nm (EDANS), and 337/425 nm (Abs). Standard curves of the appropriate fluorescent product versus concentration were used to convert relative fluorescence units to nmol of product produced. Substrates in the X-Pro-AMC library were used in rate assays at 5 μM final concentration. […] The kinetic parameters were calculated from Michaelis-Menten plots (V0 versus [S]) with nonlinear regression analysis using GraphPad software. kcat values were calculated under the assumption that each protease was 100% active.

FAP [2] = target: T2, FAP (Homo sapiens, UniProt Q12884); assay: Inhibition of FAP activity against Ala-Pro-AFC by P2-Pro-AMCC compounds; type: biochemical; parameters: FAP (amino acids 38-760); FLAG (N); made in house; host or cells: 293 cells (secreted, purified from serum-free conditioned media)
T2 sequence (Q12884 38-760): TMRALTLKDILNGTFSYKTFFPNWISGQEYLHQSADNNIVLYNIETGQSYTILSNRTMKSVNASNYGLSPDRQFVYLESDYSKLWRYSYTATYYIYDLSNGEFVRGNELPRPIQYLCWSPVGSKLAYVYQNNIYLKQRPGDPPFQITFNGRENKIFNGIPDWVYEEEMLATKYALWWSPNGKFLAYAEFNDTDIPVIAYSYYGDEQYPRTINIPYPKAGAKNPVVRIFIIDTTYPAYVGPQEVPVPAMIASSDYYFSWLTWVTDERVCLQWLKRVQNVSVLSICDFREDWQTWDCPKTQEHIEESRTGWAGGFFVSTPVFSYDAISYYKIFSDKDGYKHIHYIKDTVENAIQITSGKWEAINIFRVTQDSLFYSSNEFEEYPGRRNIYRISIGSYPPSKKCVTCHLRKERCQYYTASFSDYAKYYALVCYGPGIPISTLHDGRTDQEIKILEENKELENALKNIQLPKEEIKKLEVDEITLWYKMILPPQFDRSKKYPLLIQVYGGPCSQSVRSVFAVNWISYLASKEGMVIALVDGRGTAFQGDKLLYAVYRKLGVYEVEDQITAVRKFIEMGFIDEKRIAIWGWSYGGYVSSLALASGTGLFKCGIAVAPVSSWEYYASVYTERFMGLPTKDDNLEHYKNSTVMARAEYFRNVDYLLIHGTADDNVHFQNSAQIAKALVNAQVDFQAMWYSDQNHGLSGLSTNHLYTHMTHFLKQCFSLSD
Experimental: (§5) Inhibition of FAP and DPP-4 activity against Ala-Pro-AFC by P2-Pro-AMCC compounds was measured at various concentration of the P2-Pro-AMCC compounds in Table 7.

DPP-4 [3] = target: T1, DPP-4; assay: Inhibition of DPP-4 activity against Ala-Pro-AFC by P2-Pro-AMCC compounds; type: biochemical; parameters: DPP-4 (amino acids 39-766); FLAG (N); made in house; host or cells: 293 cells (secreted, purified from serum-free conditioned media)
Experimental: as §5

FAP [4] = target: T2, FAP; assay: Relative cleavage rates of coumarin (AMCC) dipeptide substrates by FAP; type: biochemical; parameters: FAP (amino acids 38-760); FLAG (N); made in house; host or cells: 293 cells (secreted, purified from serum-free conditioned media); details: P2-Pro-AMCC substrates; hydrolysis rates normalized to Gly-Pro-AMCC
Experimental: as §1, §2, §3, §4

FAP [5] = target: T2, FAP; details: FIG. 13
DPP-4 [6] = target: T1, DPP-4; details: FIG. 13
DPP-4 [7] = target: T1, DPP-4; assay: Inhibition of DPP-4 by N-blocked boroPro compounds (progress curves); type: biochemical; parameters: DPP-4 (amino acids 39-766); FLAG (N); made in house; host or cells: 293 cells (secreted, purified from serum-free conditioned media); details: for FAP/DPP-4 Selectivity: DPP-4 Ki relative to FAP Ki; for Ki: cleavage of substrate L-Ala-Pro-AFC
Experimental: (§6) The steady states of product formation in the absence (V0) and presence of inhibitor (Vi) were used to calculate apparent inhibition constants (Kiapp) by plotting V0/Vi−1 against inhibitor concentration.
(§7) Briefly, proteases were added to a reaction mixture containing inhibitor and substrate (Ac-Ala-AMC for APH, Z-Gly-Pro-AMC for POP, and Ala-Pro-AFC for all others) in assay buffer at 23° C. Protease activity was followed continuously as described above to monitor time-dependent inhibition. Data were plotted as V0/Vi−1 versus [I], where V0 is the rate if substrate hydrolysis in the absence of inhibitor, Vi is the steady state rate of substrate hydrolysis in the presence of inhibitor and [I] is the concentration of Ac-Gly-BoroPro.
(§8) KI values for inhibition of proteases by 5 were determined using the method of progress curves. Briefly, proteases (10-100 nM) were added to a reaction mixture containing inhibitor 5 (0-10 μM) and substrate AP-AFC in assay buffer at 23° C. […] Data were plotted as V0/Vi−1 versus [I], where V0 is the rate if substrate hydrolysis in the absence of inhibitor, Vi is the steady state rate of substrate hydrolysis in the presence of inhibitor and [I] is the concentration of 5. […] Ki, the true equilibrium inhibition constant was determined according to the following relationship: Ki=Kobs/(1+[S]/Km), where [S] is the concentration of substrate used in the assay and Km is the Michaelis constant for substrate cleavage.

FAP [8] = target: T2, FAP; assay: Inhibition of FAP by N-blocked boroPro compounds (progress curves); type: biochemical; parameters: FAP (amino acids 38-760); FLAG (N); made in house; host or cells: 293 cells (secreted, purified from serum-free conditioned media); details: cleavage of substrate L-Ala-Pro-AFC
Experimental: as §6, §7, §8

FAP [9] = target: T2, FAP; assay: Inhibition of recombinant FAP by cmk-based irreversible inhibitors; type: biochemical; parameters: FAP (amino acids 38-760); FLAG (N); made in house; host or cells: 293 cells (secreted, purified from serum-free conditioned media); details: for inhibitor concentration-dependent inhibition of FAP: 10, 100, and 500 μM inhibitor, residual activity against L-Ala-Pro-AFC; for time course of FAP activity in the presence of inhibitor: substrate L-Ala-Pro-AFC
Experimental: (§9) The cleavage activities of FAP and DPP-4 in the presence of an irreversible dipeptide inhibitor was measured (FIGS. 9-12). In each time course study (FIGS. 9-15), the protease (FAP, DPP) and the inhibitor compound were incubated together for 4 hours, then residual activity was assayed against substrate.
(§10) The cleavage activities of FAP and DPP-4 in the presence of a tetrapeptide irreversible inhibitor was measured.
(§11) Acetyl-gly-pro-chloromethyl ketone and acetyl-thre-ser-gly-pro-cmk were custom synthesized at Anaspec (San Jose, Calif.). Recombinant FAP (160 nM) and DPP-4 (160 nM) were reacted with Ac-GP-cmk or TSGP-cmk (0-500 μM) at 37° C. in 50 mM Tris-HCl, pH 7.5 containing 100 mM NaCl, and 0.1 mg/ml bovine serum albumin (assay buffer). After 6 hours, residual protease activity against AP-AFC (50 μM) was measured using a Molecular Devices M2 plate reader in the kinetic mode (excitation 400 nm, emission 505 nm). Inhibition data are graphed as residual activity relative to protease activity in the absence of inhibitor.
(§12) Inhibition of FAP and DPP-4 by the cmk-based inhibitors was studied under pseudo-first order conditions. Proteases (100 nM) were reacted with 10 μM inhibitor in assay buffer at 37° C. for increasing amounts of time. Residual protease activity was then measured using AP-AFC (50 μM) as a substrate. Pseudo-first order rate constants were calculated from the slope of plots of Ln (residual protease activity) versus time. Apparent association constants (kass) for inhibition were determined from the relationship kass=kobs/[I], where kobs is the pseudo-first order rate constant and [I] is the inhibitor concentration.

DPP-4 [10] = target: T1, DPP-4; assay: Inhibition of recombinant DPP-4 by cmk-based irreversible inhibitors; type: biochemical; parameters: DPP-4 (amino acids 39-766); FLAG (N); made in house; host or cells: 293 cells (secreted, purified from serum-free conditioned media); details: for inhibition of DPP-4: 10, 100, and 500 μM inhibitor, residual activity against L-Ala-Pro-AFC; for time course of DPP-4 activity in the presence of inhibitor: substrate L-Ala-Pro-AFC
Experimental: as §9, §10, §11, §12

tumor cells = details: cited from earlier work
[11] = test system: syngeneic tumors derived from fibrosarcoma, lymphoma, melanoma, and mastocytoma cell lines; details: oral administration to mice; cited from earlier work

T1 sequence (P27487 39-766): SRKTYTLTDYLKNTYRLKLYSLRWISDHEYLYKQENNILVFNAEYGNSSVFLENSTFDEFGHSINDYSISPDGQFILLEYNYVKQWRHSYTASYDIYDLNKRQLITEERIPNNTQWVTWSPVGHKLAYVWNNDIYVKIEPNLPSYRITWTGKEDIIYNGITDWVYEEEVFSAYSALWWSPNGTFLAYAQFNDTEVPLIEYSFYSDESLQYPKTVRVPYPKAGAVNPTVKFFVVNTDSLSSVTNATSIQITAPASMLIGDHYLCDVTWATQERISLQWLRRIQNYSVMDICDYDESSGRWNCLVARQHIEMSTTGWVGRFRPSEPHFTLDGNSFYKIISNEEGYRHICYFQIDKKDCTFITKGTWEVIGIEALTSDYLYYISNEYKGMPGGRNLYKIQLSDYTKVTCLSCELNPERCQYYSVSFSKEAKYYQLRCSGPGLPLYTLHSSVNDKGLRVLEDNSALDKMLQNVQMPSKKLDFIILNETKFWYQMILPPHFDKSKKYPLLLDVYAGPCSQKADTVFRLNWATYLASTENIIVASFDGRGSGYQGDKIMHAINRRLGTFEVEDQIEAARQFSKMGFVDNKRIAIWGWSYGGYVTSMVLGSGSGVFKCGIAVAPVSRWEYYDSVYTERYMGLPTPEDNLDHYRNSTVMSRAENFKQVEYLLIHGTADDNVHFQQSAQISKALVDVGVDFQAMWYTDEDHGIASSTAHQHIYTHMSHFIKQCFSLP

Molecule | Relative Hydrolysis rate by DPP-4 (DPP-4 [1]) | Ki (FAP [2]) | Ki (DPP-4 [3]) | Relative Hydrolysis rate by FAP (FAP [4]) | FAP/DPP-4 Selectivity (DPP-4 [7]) | Ki (DPP-4 [7]) | Ki (FAP [8]) | also measured
NCCC(=O)O [β-Ala] | 1 | 0.34 µM | 2 µM | 2 |  |  |  | 
cyclohexylglycine-2-cyano-proline [CHCP] |  |  |  |  |  |  |  | effect of inhibitor concentration on cleavage of AP-AFC by FAP (FAP [5]): not inhibitor concentration dependent cleavage by FAP; effect of inhibitor concentration on cleavage of AP-AFC by DPP-4 (DPP-4 [6]): inhibitor concentration dependent cleavage by DPP-4
CC(=O)NC(CO)C(=O)N1CCCC1C(=O)Nc1ccc2c(C)c(CC(N)=O)c(=O)oc2c1 [Ac-(D-Ser)] | 0 | 0.2 µM | > 2 µM | 3 |  |  |  | 
O=C(CNCc1ccccc1)N1CCCC1B(O)O (stereo not drawn) [N-benzyl-Gly-boroPro] |  |  |  |  | 1.2 | 0.056 µM | 0.048 µM | 
CC(=O)NC(C(=O)NC(CO)C(=O)NCC(=O)N1CCCC1C(=O)CCl)C(C)O (stereo not drawn) [TSGP-cmk, acetyl-thre-ser-gly-pro-cmk] (Ac-TSGP-CH2Cl; configuration not given here) |  |  |  |  |  |  |  | inhibitor concentration-dependent inhibition of FAP (FAP [9]): almost complete; time course of FAP activity in the presence of inhibitor (FAP [9]): time-dependent; inhibition of DPP-4 (DPP-4 [10]): not substantially inhibited; time course of DPP-4 activity in the presence of inhibitor (DPP-4 [10]): not time-dependent inhibited
CC(=O)NC(C)C(=O)N1CCCC1C(=O)Nc1ccc2c(C)c(CC(N)=O)c(=O)oc2c1 [Ac-(D-Ala)] | 1 | 1 µM | > 2 µM | 3 |  |  |  | 
CC(=O)NC(CO)C(=O)NCC(=O)N1CCCC1B(O)O (stereo not drawn) [N-Ac-Ser-Gly-boroPro] |  |  |  |  | >3 | > 40 µM | 16.5 µM | 
Cc1cccc(C)c1C(=O)NCC(=O)N1CCCC1B(O)O (stereo not drawn) [N-(2,6-dimethylbenzoyl)-Gly-boroPro] |  |  |  |  | 44 | 1.1 µM | 0.025 µM | 
CC(=O)NCC(=O)N1CCC[C@H]1C(=O)CCl [Ac-Gly-Pro-cmk, Acetyl-gly-pro-chloromethyl ketone] (Ac-Gly-Pro-CH2Cl) |  |  |  |  |  |  |  | inhibitor concentration-dependent inhibition of FAP (FAP [9]): almost complete; time course of FAP activity in the presence of inhibitor (FAP [9]): time-dependent; inhibition of DPP-4 (DPP-4 [10]): not inhibited; time course of DPP-4 activity in the presence of inhibitor (DPP-4 [10]): not time-dependent inhibited
CC(C)[C@H](N)C(=O)N1CCC[C@H]1B(O)O [PT-100, Val-boro-Pro] |  |  |  |  |  |  |  | direct cytotoxic effect on tumor cells (tumor cells): no direct cytotoxic effect; growth of syngeneic tumors [11]: slowed growth
